Reference: article PMC12633754, “Elastase inhibition by natural flavonoids: mechanistic insights and potential therapeutic applications” (Frontiers in Nutrition, 2025)

Legend:
[1] = biological target: T1, porcine pancreatic elastase (PPE) (Sus scrofa, UniProt P00772); test: FT-IR spectra of PPE-monomer complexes; conditions: PPE 10 μM, flavonoid 100 μM
T1 construct: purchased Sigma-Aldrich (St. Louis, MO, United States)
Method: FTIR spectra were obtained using the potassium bromide (KBr) compression method with a Nicolet IS-50 spectrometer (Thermo Fisher Scientific, Waltham, MA, United States). […] The sheets were then dried at 45 °C and pressed. Blank background for the PBS buffer sheets. The spectral region between 4,000 and 500 cm^−1 was selected to examine changes in the secondary structure resulting from enzyme-drug interactions. All samples were assayed after drying and the experimental conditions were consistent for each group of assays.

[2] = biological target: T1, porcine pancreatic elastase (PPE); test: UV-vis absorption spectra of PPE with flavonoid; conditions: PPE 5 μM, flavonoid 15 μM, 298 K
Method: The UV–vis absorption spectra of porcine pancreatic elastase PPE (2.5 mL) were recorded using a Cary 300 spectrometer (Agilent, San Diego, CA, United States) in a quartz cuvette with a path length of 10 mm. PPE concentration was fixed at 5 μM and the drug concentrations were 0 and 15 μM. Tris–HCl solution (pH 7.6) was used as the blank. The control group was a solution of four flavonoid monomers at a final concentration of 15 μM. The spectra were recorded in the range of 200–500 nm with a slit width of 2 nm at 298 K.

[3] = biological target: T1, porcine pancreatic elastase (PPE); test: CD spectroscopy, secondary structure of PPE; conditions: PPE 5 μM, flavonoid 2.5 μM, 298 K; for α-helix (%): PPE alone 7.50; for Random coil (%): PPE alone 41.00; for β-sheet (%): PPE alone 51.50
Method: The CD spectra of PPE, PPE-quercetin, PPE-hyperoside, PPE-luteolin, and PPE-luteoloside were obtained using an MOS-500 CD spectrometer (Biologic Science Instruments, Seyssinet-Pariset, France). […] Set at a temperature of 298 K. The signal was recorded from 190 to 260 nm using a path length of 1 mm, acquisition duration of 0.5 s, and scanning step of 2 nm. The CD spectra were averaged after performing three scans and correcting for the background value of the phosphate buffer. All results were documented as CD ellipticity in degrees.

[4] = biological target: T1, porcine pancreatic elastase (PPE); test: Intrinsic fluorescence quenching of PPE: Stern-Volmer, binding constants, thermodynamics; conditions: for Kd: Ka binding constant; for ΔH / ΔS: van't Hoff, 298, 303, 310 K
Method: Fluorescence measurements were performed using a model F-7000 fluorescence spectrometer (Hitachi, Tokyo, Japan). Elastase solution (2,000 μL in Tris–HCl buffer solution) was mixed with inhibitor solutions at different concentrations in a 1.0 cm quartz cell at 298, 303, and 310 K. The final concentrations of the four natural flavonoids and elastase were identical to those used to obtain the synchronous fluorescence spectra. The fluorescence emission spectra were recorded within the range of 285–500 nm, following excitation at 280 nm. The excitation and emission slit widths were set as 2.5 nm. The scan speed was 1,200 nm/min and the photomultiplier tube (PMT) voltage was 630 V. Fluorescence intensities were corrected for inner filter and dilution effects before analyzing the binding and quenching data.
To determine the type of fluorescence quenching of the monomer interacting with PPE, the Stern-Volmer equation was used ([20]–[22]):
F0/F=KSV[Q]+1=Kqτ0[Q]+1 (2)
where F0 and F are the fluorescence intensities of PPE before and after the addition of different monomer solutions, respectively, Ksv is the quenching constant, [Q] is the concentration of different drugs, Kq is the quenching rate constant, τ0 is the average fluorescence lifetime of the substance in the absence of a quencher, and τ0 for the general biological macromolecule is 1 × 10^−8 s ([20], [23], [24]).
According to the correction formula, the binding constant (Ka) and number of binding points (n) for the actions of the four monomers and PPE were calculated as follows ([25]–[27]):
lgF0−F/F=nlgKa−nlg1/[Q0]−[P0]F0−F/F0 (3)
where [ Q0 ] and [P0] are the drug and PPE concentrations, respectively.
where K is the binding constant of the interaction, R is the gas constant, ΔH, ΔG, and ΔS are enthalpy, Gibbs energy, and entropy change.

[5] = biological target: T1, porcine pancreatic elastase (PPE); test: Synchronous fluorescence spectra of PPE; conditions: Δλ = 60 nm, PPE 2 μM, flavonoid 0-80 μM, 298 K
Method: For the synchronous fluorescence spectroscopy experiments, the configuration of the solution preparation was the same as that used in experiment 2.3. Synchronous fluorescence spectra of PPE-quercetin, PPE-hyperoside, PPE-luteolin, and PPE-luteoloside were recorded at 298 K.

[6] = biological target: T1, porcine pancreatic elastase (PPE); test: Fluorescence resonance energy transfer and binding distance; conditions: [PPE] = [flavonoid] = 10 μM, 298 K
Method: The PPE-quercetin, PPE-hyperoside, PPE-luteolin, and PPE-luteoloside binding distances were calculated according to the fluorescence resonance energy transfer theory ([31]–[33]):
J=∑FD(λ)εA(λ)λ^4Δλ/∑FD(λ)Δλ (9)
where k^2 is the dipole moment spatial orientation factor, usually taking the average 2/3; φ is the quantum efficiency of PPE, usually a quantum efficiency of Try residues of 0.15; n is the refractive index of the medium, representing the average of water and organic matter; J is the overlap integral of the absorption spectra and the fluorescence spectra; and ɛA(λ) is the molar extinction coefficient ([34]–[36]).

[7] = biological target: T1, porcine pancreatic elastase (PPE); test: Elastase inhibition assay, fluorescent substrate MeOSuc-Ala-Ala-Pro-Val-AMC; format: biochemical; conditions: for IC50: 298 K; for inhibition at 22.5 µM: read-out: Inhibition rate of PPE
Method: Elastase was selected as the enzyme target and MeOSuc-Ala-Ala-Pro-Val-AMC as the substrate for the enzymatic reaction. According to the principle of enzyme reactions, an in vitro target enzyme drug screening model was established by measuring the relative fluorescence intensity for drug screening and evaluation. The inhibition rate was measured using a FlexStation3 multifunctional plate reader (Molecular Devices, Shanghai, China). Elastase solution (50 μL, 5 × 10^−7 mol/L) was mixed with a fluorescent substrate (50 μL, 2 × 10^−5 mol/L), and Tris–HCl buffer solution was added to obtain a total volume of 200 μL. […] The excitation wavelength was adjusted to 380 nm, and the emission wavelength was recorded in the range 420–540 nm. A 200 μL buffer solution was used as the blank for reference. The relative fluorescence values of pure enzyme activity were recorded. Four monomer solutions of the same concentration were added separately and their relative fluorescence values were measured under the same conditions. The concentration of each monomer was varied in different samples to obtain IC50 values. Inhibition rate (%) was calculated as follows:
Inhibition rate(%)=RFUPPE−RFUDrugs+PPE/RFUPPE×100% (1)
where the relative fluorescence unit (RFU) PPE refers to the relative fluorescence measured when only PPE and the fluorescent substrate are present without any inhibitors, and RFU Drugs+PPE refers to the relative fluorescence measured when both PPE and the test drug inhibitor are present.

elastase = biological target: elastase; set-up: method as in doi:10.19894/j.issn.1000-0518.210248; conditions: elastase inhibition, earlier study ref 61; cited from earlier work

T1 sequence (P00772 27-266): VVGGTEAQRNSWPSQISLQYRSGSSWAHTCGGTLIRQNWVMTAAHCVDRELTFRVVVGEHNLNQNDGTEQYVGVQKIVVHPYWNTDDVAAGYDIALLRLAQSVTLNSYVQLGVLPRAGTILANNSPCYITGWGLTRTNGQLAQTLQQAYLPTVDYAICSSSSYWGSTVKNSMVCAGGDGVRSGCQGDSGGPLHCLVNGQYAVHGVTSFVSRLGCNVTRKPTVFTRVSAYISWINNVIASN

O=c1c(O[C@@H]2O[C@H](CO)[C@H](O)[C@H](O)[C@H]2O)c(-c2ccc(O)c(O)c2)oc2cc(O)cc(O)c12 [hyperoside]
amide I band of PPE after addition (from 1638.45) [1]: 1633.14 cm⁻¹
blue shift of maximum absorption peak of PPE (275 nm) [2]: 4 nm
decrease of α-helical structure [3]: 1.20%
α-helix (%) [3]: 6.30%
Random coil (%) [3]: 46.34%
β-sheet (%) [3]: 47.36%
KSV Stern-Volmer quenching constant ([4]; 298 K): 5.47 10^4 L•mol^−1
Kq quenching rate constant ([4]; 298 K): 5.47 10^12 L•mol^−1•s^−1
n number of binding sites ([4]; 298 K): 1.58
KSV Stern-Volmer quenching constant ([4]; 303 K): 4.85 10^4 L•mol^−1
Kq quenching rate constant ([4]; 303 K): 4.85 10^12 L•mol^−1•s^−1
n number of binding sites ([4]; 303 K): 1.56
ΔG ([4]; 303 K): -6.874 kcal/mol
KSV Stern-Volmer quenching constant ([4]; 310 K): 4.78 10^4 L•mol^−1
Kq quenching rate constant ([4]; 310 K): 4.78 10^12 L•mol^−1•s^−1
n number of binding sites ([4]; 310 K): 1.35
ΔG ([4]; 310 K): -6.881 kcal/mol
Kd ([4]; 298 K): 24.6 µM
Kd ([4]; 303 K): 29.6 µM
Kd ([4]; 310 K): 31.3 µM
ΔH [4]: -6.5753 kcal/mol
ΔS [4]: −4.108 J/(mol•K)
red shift of Trp synchronous fluorescence [5]: 7 nm
R0 [6]: 1.86 nm
binding distance r [6]: 2.40 nm
IC50 [7]: 31 µM
inhibition at 22.5 µM [7]: 41.1%

O=c1cc(-c2ccc(O)c(O)c2)oc2cc(O)cc(O)c12 [luteolin]
amide I band of PPE after addition (from 1638.45) [1]: 1632.53 cm⁻¹
blue shift of maximum absorption peak of PPE (275 nm) [2]: 3 nm
decrease of α-helical structure [3]: 0.96%
α-helix (%) [3]: 6.54%
KSV Stern-Volmer quenching constant ([4]; 298 K): 1.15 10^4 L•mol^−1
Kq quenching rate constant ([4]; 298 K): 1.15 10^12 L•mol^−1•s^−1
n number of binding sites ([4]; 298 K): 0.97
KSV Stern-Volmer quenching constant ([4]; 303 K): 1.04 10^4 L•mol^−1
Kq quenching rate constant ([4]; 303 K): 1.04 10^12 L•mol^−1•s^−1
n number of binding sites ([4]; 303 K): 1.11
ΔG ([4]; 303 K): -6.511 kcal/mol
KSV Stern-Volmer quenching constant ([4]; 310 K): 0.98 10^4 L•mol^−1
Kq quenching rate constant ([4]; 310 K): 0.98 10^12 L•mol^−1•s^−1
n number of binding sites ([4]; 310 K): 1.17
ΔG ([4]; 310 K): -6.52 kcal/mol
Kd ([4]; 298 K): 82.6 µM
Kd ([4]; 303 K): 95.2 µM
Kd ([4]; 310 K): 102 µM
ΔH [4]: -6.0327 kcal/mol
ΔS [4]: −6.585 J/(mol•K)
red shift of Trp synchronous fluorescence [5]: 4 nm
R0 [6]: 1.97 nm
binding distance r [6]: 2.67 nm
IC50 [7]: 18.2 µM
inhibition at 22.5 µM [7]: 54.3%

O=c1cc(-c2ccc(O)c(O)c2)oc2cc(O[C@@H]3O[C@H](CO)[C@@H](O)[C@H](O)[C@H]3O)cc(O)c12 [luteoloside]
amide I band of PPE after addition (from 1638.45) [1]: 1634.55 cm⁻¹
blue shift of maximum absorption peak of PPE (275 nm) [2]: 8 nm
decrease of α-helical structure [3]: 1.99%
α-helix (%) [3]: 5.51%
Random coil (%) [3]: 43.91%
β-sheet (%) [3]: 50.58%
KSV Stern-Volmer quenching constant ([4]; 298 K): 1.79 10^4 L•mol^−1
Kq quenching rate constant ([4]; 298 K): 1.79 10^12 L•mol^−1•s^−1
n number of binding sites ([4]; 298 K): 0.95
ΔG ([4]; 298 K): -5.834 kcal/mol
KSV Stern-Volmer quenching constant ([4]; 303 K): 1.66 10^4 L•mol^−1
Kq quenching rate constant ([4]; 303 K): 1.66 10^12 L•mol^−1•s^−1
n number of binding sites ([4]; 303 K): 0.93
ΔG ([4]; 303 K): -5.92 kcal/mol
KSV Stern-Volmer quenching constant ([4]; 310 K): 1.57 10^4 L•mol^−1
Kq quenching rate constant ([4]; 310 K): 1.57 10^12 L•mol^−1•s^−1
n number of binding sites ([4]; 310 K): 1.07
ΔG ([4]; 310 K): -6.042 kcal/mol
Kd ([4]; 298 K): 52.4 µM
Kd ([4]; 303 K): 53.8 µM
Kd ([4]; 310 K): 55.2 µM
ΔH [4]: -0.6989 kcal/mol
ΔS [4]: 72.107 J/(mol•K)
red shift of Trp synchronous fluorescence [5]: 1 nm
R0 [6]: 1.99 nm
binding distance r [6]: 2.71 nm
IC50 [7]: 61.3 µM
inhibition at 22.5 µM [7]: 12.2%

O=c1c(O)c(-c2ccc(O)c(O)c2)oc2cc(O)cc(O)c12 [quercetin]
amide I band of PPE after addition (from 1638.45) [1]: 1633.59 cm⁻¹
decrease of α-helical structure [3]: 1.14%
α-helix (%) [3]: 6.36%
Random coil (%) [3]: 44.59%
β-sheet (%) [3]: 49.05%
KSV Stern-Volmer quenching constant ([4]; 298 K): 0.59 10^4 L•mol^−1
Kq quenching rate constant ([4]; 298 K): 0.59 10^12 L•mol^−1•s^−1
n number of binding sites ([4]; 298 K): 1.13
ΔG ([4]; 298 K): -5.153 kcal/mol
KSV Stern-Volmer quenching constant ([4]; 303 K): 0.58 10^4 L•mol^−1
Kq quenching rate constant ([4]; 303 K): 0.58 10^12 L•mol^−1•s^−1
n number of binding sites ([4]; 303 K): 0.99
ΔG ([4]; 303 K): -5.208 kcal/mol
KSV Stern-Volmer quenching constant ([4]; 310 K): 0.52 10^4 L•mol^−1
Kq quenching rate constant ([4]; 310 K): 0.52 10^12 L•mol^−1•s^−1
n number of binding sites ([4]; 310 K): 0.80
ΔG ([4]; 310 K): -5.284 kcal/mol
ΔH [4]: -1.901 kcal/mol
ΔS [4]: 45.6521 J/(mol•K)
R0 [6]: 1.91 nm
binding distance r [6]: 2.82 nm
inhibition at 22.5 µM [7]: 22.2%

CC(C)(C)C(=O)Oc1ccc(S(=O)(=O)Nc2ccccc2C(=O)NCC(=O)O)cc1 [sivelestat sodium]
IC50 (elastase): 9.98 µM
